Experimental data published in PubChem BioAssay (NCI).
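Step 1: Grow cells in 96-well plates. Step 2: Expose to compound for 48 hours at 5 concentrations. Step 3: Interpolate endpoints linearly; if unreached, use highest concentration. TGI is the concentration that stops growth completely.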

Key:
Assay in all cases: inhibition of tumour cell growth, NCI panel, 48 h
[1] = tested on: SNB-19 CNS
[2] = tested on: UACC-62 melanoma
[3] = tested on: OVCAR-5 ovarian
[4] = tested on: MALME-3M melanoma
[5] = tested on: TK-10 renal
[6] = tested on: HCC-2998 colon
[7] = tested on: KM12 colon
[8] = tested on: SF-539 CNS
[9] = tested on: LOX IMVI melanoma
[10] = tested on: UO-31 renal
[11] = tested on: RXF 393 renal
[12] = tested on: HL-60(TB) leukemia
[13] = tested on: HCT-116 colon
[14] = tested on: RPMI-8226 leukemia
[15] = tested on: MOLT-4 leukemia
[16] = tested on: SNB-78 CNS
[17] = tested on: EKVX NSCLC
[18] = tested on: SK-MEL-2 melanoma
[19] = tested on: NCI-H23 lung
[20] = tested on: DLD-1 colon
[21] = tested on: CAKI-1 renal
[22] = tested on: SK-OV-3 ovarian
[23] = tested on: 786-0 renal
[24] = tested on: CCRF-CEM leukemia
[25] = tested on: SW-620 colon
[26] = tested on: IGROV1 ovarian
[27] = tested on: HCT-15 colon
[28] = tested on: SK-MEL-28 melanoma
[29] = tested on: U251 CNS
[30] = tested on: OVCAR-4 ovarian
[31] = tested on: NCI-H522 lung
[32] = tested on: OVCAR-8 ovarian
[33] = tested on: LXFL 529 NSCLC
[34] = tested on: NCI-H460 lung
[35] = tested on: HOP-62 NSCLC
[36] = tested on: UACC-257 melanoma
[37] = tested on: SK-MEL-5 melanoma
[38] = tested on: A498 renal
[39] = tested on: OVCAR-3 ovarian
[40] = tested on: KM20L2 colon
[41] = tested on: SF-268 CNS
[42] = tested on: K-562 leukemia
[43] = tested on: ACHN renal
[44] = tested on: A549 NSCLC
[45] = tested on: M14 melanoma
[46] = tested on: M19-MEL melanoma
[47] = tested on: COLO 205 colon
[48] = tested on: SNB-75 CNS
[49] = tested on: DMS 114 small cell lung
[50] = tested on: HOP-92 NSCLC
[51] = tested on: NCI-H226 lung
[52] = tested on: HT29 colon
[53] = tested on: SR leukemia
[54] = tested on: SF-295 CNS
[55] = tested on: SN12C renal
[56] = tested on: DMS 273 small cell lung

O=C1NC(=O)C(C(=O)C(=O)Nc2cccc(C(F)(F)F)c2)C(=O)N1
TGI [1]: > 100 µM | TGI [2]: > 100 µM | TGI [3]: > 100 µM | TGI [4]: > 100 µM | TGI [5]: > 100 µM | TGI [6]: > 100 µM | TGI [7]: > 100 µM | TGI [8]: > 100 µM | TGI [9]: > 100 µM | TGI [10]: > 100 µM | TGI [11]: > 100 µM | TGI [12]: > 100 µM | TGI [13]: > 100 µM | TGI [14]: > 100 µM | TGI [15]: > 100 µM | TGI [16]: > 100 µM | TGI [17]: > 100 µM | TGI [18]: > 100 µM | TGI [19]: > 100 µM | TGI [20]: > 100 µM | TGI [21]: > 100 µM | TGI [22]: > 100 µM | TGI [23]: > 100 µM | TGI [24]: > 100 µM | TGI [25]: > 100 µM | TGI [26]: > 100 µM | TGI [27]: > 100 µM | TGI [28]: > 100 µM | TGI [29]: > 100 µM | TGI [30]: > 100 µM | TGI [31]: > 100 µM | TGI [32]: > 100 µM | TGI [33]: > 100 µM | TGI [34]: > 100 µM | TGI [35]: > 100 µM | TGI [36]: > 100 µM | TGI [37]: > 100 µM | TGI [38]: > 100 µM | TGI [39]: > 100 µM | TGI [40]: > 100 µM | TGI [41]: > 100 µM | TGI [42]: > 100 µM | TGI [43]: > 100 µM | TGI [44]: > 100 µM | TGI [45]: > 100 µM | TGI [46]: > 100 µM | TGI [47]: > 100 µM | TGI [48]: > 100 µM | TGI [49]: > 100 µM

COC(=O)C1=C(C)N2CCOC2(C)C(C(=O)OC)C1c1ccc[nH]1 (configuration not stated)
TGI [1]: > 100 µM | TGI [2]: > 100 µM | TGI [5]: > 100 µM | TGI [6]: > 100 µM | TGI [7]: > 100 µM | TGI [8]: > 100 µM | TGI [50]: > 100 µM | TGI [10]: > 100 µM | TGI [11]: > 100 µM | TGI [12]: > 100 µM | TGI [13]: > 100 µM | TGI [14]: > 100 µM | TGI [51]: > 100 µM | TGI [15]: > 100 µM | TGI [17]: > 100 µM | TGI [18]: > 100 µM | TGI [19]: > 100 µM | TGI [52]: > 100 µM | TGI [20]: > 100 µM | TGI [21]: > 100 µM | TGI [24]: > 100 µM | TGI [25]: > 100 µM | TGI [26]: > 100 µM | TGI [28]: > 100 µM | TGI [30]: > 100 µM | TGI [32]: > 100 µM | TGI [33]: > 100 µM | TGI [34]: > 100 µM | TGI [35]: > 100 µM | TGI [36]: > 100 µM | TGI [37]: > 100 µM | TGI [53]: > 100 µM | TGI [39]: > 100 µM | TGI [40]: > 100 µM | TGI [54]: > 100 µM | TGI [41]: > 100 µM | TGI [42]: > 100 µM | TGI [43]: > 100 µM | TGI [44]: > 100 µM | TGI [45]: > 100 µM | TGI [46]: > 100 µM | TGI [47]: > 100 µM | TGI [48]: 82.9 µM | TGI [49]: > 100 µM

C=C1C(=O)OC2C1CC[C@H](C)C1(O)C(O)CC(=O)[C@@]21C (some centres not stated)
TGI [1]: > 100 µM | TGI [2]: 25.3 µM | TGI [3]: 65.4 µM | TGI [4]: 39.2 µM | TGI [5]: > 10 µM | TGI [6]: 46.6 µM | TGI [7]: 34.1 µM | TGI [8]: 40.3 µM | TGI [50]: 47.7 µM | TGI [10]: 71.2 µM | TGI [11]: > 10 µM | TGI [12]: 55.2 µM | TGI [13]: 33.9 µM | TGI [14]: 94.8 µM | TGI [51]: 53.3 µM | TGI [15]: 42.7 µM | TGI [16]: 84.2 µM | TGI [17]: 45.1 µM | TGI [18]: 72.1 µM | TGI [19]: 40.3 µM | TGI [52]: 48.9 µM | TGI [20]: 80.7 µM | TGI [21]: 72.7 µM | TGI [22]: 56 µM | TGI [23]: 66.7 µM | TGI [24]: > 10 µM | TGI [25]: 44 µM | TGI [26]: 73.4 µM | TGI [28]: 27 µM | TGI [29]: > 100 µM | TGI [32]: 42.8 µM | TGI [33]: > 10 µM | TGI [34]: > 100 µM | TGI [55]: 45.1 µM | TGI [36]: 32.6 µM | TGI [37]: 31.4 µM | TGI [53]: 47.9 µM | TGI [38]: 36 µM | TGI [39]: 47.8 µM | TGI [56]: 52.3 µM | TGI [54]: 61.3 µM | TGI [41]: 54.5 µM | TGI [42]: 55.6 µM | TGI [43]: 43.4 µM | TGI [44]: > 100 µM | TGI [46]: 26.8 µM | TGI [47]: 30.8 µM | TGI [48]: 76.2 µM | TGI [49]: 33.9 µM
